Data on one compound can be found in patent US10940155B2, “Oral quetiapine suspension formulations with extended shelf life and enhanced bioavailability” (TLC THERAPEUTICS, LLC, priority 2017, dated 2021).

The conditions of data set [1]: due to extensive first-pass metabolism; cited from earlier work.

Where a name gives a salt, the structure may show the parent alone. Read-outs that look alike come from different tables or passages of the source.

Consider `OCCOCCN1CCN(C2=Nc3ccccc3Sc3ccccc32)CC1` [quetiapine fumarate, 2-[2-(4-dibenzo [b,f][1,4]thiazepin-11-yl-1-piperazinyl)ethoxy]-ethanol fumarate (2:1)], for which the solubility reads like this: (pH 2) 1.499 g/5 ml; (pH 3) 952.1 mg/5 ml. Moreover, the oral bioavailability entry in data set [1] was “poor”.
